Assay results reported in ChEMBL document CHEMBL2380238, “Synthesis, spectral and antimicrobial evaluation of some novel 1-methyl-3-alkyl-2,6-diphenylpiperidin-4-one oxime carbonates” (2013).
Converted amounts (≈) assume the structure as drawn. The source made the active and inactive calls. No cut-off for these calls is given here.

Assays:
Assay type in all cases: functional
Penicillium [1] = test: Antifungal activity against Penicillium
Enterococcus faecalis [2] = test: Antibacterial activity against Streptococcus faecalis after 24 hrs by broth dilution method
Rhizopus [3] = test: Antifungal activity against Rhizopus after 72 to 96 hrs by broth dilution method
Enterococcus faecalis [4] = test: Antibacterial activity against Streptococcus faecalis
Rhizopus [5] = test: Antifungal activity against Rhizopus
Aspergillus flavus [6] = test: Antifungal activity against Aspergillus flavus
Fusarium [7] = test: Antifungal activity against Fusarium
Bacillus subtilis [8] = test: Antibacterial activity against Bacillus subtilis
Escherichia coli [9] = test: Antibacterial activity against Escherichia coli after 24 hrs by broth dilution method
Pseudomonas aeruginosa [10] = test: Antibacterial activity against Pseudomonas aeruginosa after 24 hrs by broth dilution method
Escherichia coli [11] = test: Antibacterial activity against Escherichia coli
Aspergillus niger [12] = test: Antifungal activity against Aspergillus niger
Klebsiella pneumoniae [13] = test: Antibacterial activity against Klebsiella pneumoniae after 24 hrs by broth dilution method
Klebsiella pneumoniae [14] = test: Antibacterial activity against Klebsiella pneumoniae
Aspergillus flavus [15] = test: Antifungal activity against Aspergillus flavus after 72 to 96 hrs by broth dilution method
Bacillus subtilis [16] = test: Antibacterial activity against Bacillus subtilis after 24 hrs by broth dilution method
Aspergillus niger [17] = test: Antifungal activity against Aspergillus niger after 72 to 96 hrs by broth dilution method
Pseudomonas aeruginosa [18] = test: Antibacterial activity against Pseudomonas aeruginosa
Penicillium [19] = test: Antifungal activity against Penicillium after 72 to 96 hrs by broth dilution method
Fusarium [20] = test: Antifungal activity against Fusarium after 72 to 96 hrs by broth dilution method

Row | MIC (Enterococcus faecalis [2]) | MIC (Rhizopus [3]) | MIC (Escherichia coli [9]) | MIC (Pseudomonas aeruginosa [10]) | MIC (Klebsiella pneumoniae [13]) | MIC (Aspergillus flavus [15]) | MIC (Bacillus subtilis [16]) | MIC (Aspergillus niger [17]) | MIC (Penicillium [19]) | MIC (Fusarium [20]) | Compound | inhibition zone (IZ) (Penicillium [1]) | inhibition zone (IZ) (Enterococcus faecalis [4]) | inhibition zone (IZ) (Rhizopus [5]) | inhibition zone (IZ) (Aspergillus flavus [6]) | inhibition zone (IZ) (Fusarium [7]) | inhibition zone (IZ) (Bacillus subtilis [8]) | inhibition zone (IZ) (Escherichia coli [11]) | inhibition zone (IZ) (Aspergillus niger [12]) | inhibition zone (IZ) (Klebsiella pneumoniae [14]) | inhibition zone (IZ) (Pseudomonas aeruginosa [18])
1 | 25 mg/L (≈ 60.3 µM) | 50 mg/L (≈ 121 µM) | 12.5 mg/L (≈ 30.2 µM) | 25 mg/L (≈ 60.3 µM) | 12.5 mg/L (≈ 30.2 µM) | 50 mg/L (≈ 121 µM) | 25 mg/L (≈ 60.3 µM) | 100 mg/L (≈ 241 µM) | 50 mg/L (≈ 121 µM) | 25 mg/L (≈ 60.3 µM) | CC1/C(=N/OC(=O)Oc2ccccc2)CC(c2ccccc2)N(C)C1c1ccccc1 (stereo not given) | 12 mm | 17 mm | 12 mm | 12 mm | 12 mm | 12 mm | 17 mm | 12 mm | 17 mm | 12 mm
2 | 200 mg/L (≈ 567 µM) | 200 mg/L (≈ 567 µM) | 50 mg/L (≈ 142 µM) | 200 mg/L (≈ 567 µM) | 200 mg/L (≈ 567 µM) | 100 mg/L (≈ 284 µM) | 50 mg/L (≈ 142 µM) | 200 mg/L (≈ 567 µM) | 200 mg/L (≈ 567 µM) | 200 mg/L (≈ 567 µM) | COC(=O)O/N=C1\CC(c2ccccc2)N(C)C(c2ccccc2)C1C (stereo not given) | inactive | inactive | inactive | 12 mm | inactive | 12 mm | 12 mm | inactive | inactive | inactive
3 | 50 mg/L (≈ 155 µM) | 50 mg/L (≈ 155 µM) | 50 mg/L (≈ 155 µM) | 200 mg/L (≈ 620 µM) | 200 mg/L (≈ 620 µM) | 200 mg/L (≈ 620 µM) | 25 mg/L (≈ 77.5 µM) | 200 mg/L (≈ 620 µM) | 100 mg/L (≈ 310 µM) | 200 mg/L (≈ 620 µM) | CC(C)C1/C(=N/O)CC(c2ccccc2)N(C)C1c1ccccc1 (stereo not given) | 12 mm | 12 mm | 12 mm | inactive | inactive | 12 mm | 17 mm | inactive | inactive | 12 mm
4 | 12.5 mg/L (≈ 30.1 µM) | 25 mg/L (≈ 60.3 µM) | 12.5 mg/L (≈ 30.1 µM) | 12.5 mg/L (≈ 30.1 µM) | 6.25 mg/L (≈ 15.1 µM) | 25 mg/L (≈ 60.3 µM) | 25 mg/L (≈ 60.3 µM) | 25 mg/L (≈ 60.3 µM) | 25 mg/L (≈ 60.3 µM) | 12.5 mg/L (≈ 30.1 µM) | CCC1/C(=N/OC(=O)OC(C)Cl)CC(c2ccccc2)N(C)C1c1ccccc1 (stereo not given) | 17 mm | 22 mm | 17 mm | 17 mm | 22 mm | 17 mm | 22 mm | 17 mm | 32 mm | 22 mm

More lines, now with the values behind:

Row | Compound | MIC (Enterococcus faecalis [2]) | MIC (Rhizopus [3]) | MIC (Escherichia coli [9]) | MIC (Pseudomonas aeruginosa [10]) | MIC (Klebsiella pneumoniae [13]) | MIC (Aspergillus flavus [15]) | MIC (Bacillus subtilis [16]) | MIC (Aspergillus niger [17]) | MIC (Penicillium [19]) | MIC (Fusarium [20]) | inhibition zone (IZ) (Penicillium [1]) | inhibition zone (IZ) (Enterococcus faecalis [4]) | inhibition zone (IZ) (Rhizopus [5]) | inhibition zone (IZ) (Aspergillus flavus [6]) | inhibition zone (IZ) (Fusarium [7]) | inhibition zone (IZ) (Bacillus subtilis [8]) | inhibition zone (IZ) (Escherichia coli [11]) | inhibition zone (IZ) (Aspergillus niger [12]) | inhibition zone (IZ) (Klebsiella pneumoniae [14]) | inhibition zone (IZ) (Pseudomonas aeruginosa [18])
5 | CC1/C(=N/O)CC(c2ccccc2)N(C)C1c1ccccc1 (stereo not given) | 200 mg/L (≈ 679 µM) | 100 mg/L (≈ 340 µM) | 100 mg/L (≈ 340 µM) | 200 mg/L (≈ 679 µM) | 200 mg/L (≈ 679 µM) | 200 mg/L (≈ 679 µM) | 100 mg/L (≈ 340 µM) | 200 mg/L (≈ 679 µM) | 200 mg/L (≈ 679 µM) | 200 mg/L (≈ 679 µM) | inactive | inactive | 12 mm | inactive | inactive | 12 mm | 12 mm | inactive | inactive | inactive
6 | CCC1/C(=N/OC(=O)Oc2ccccc2)CC(c2ccccc2)N(C)C1c1ccccc1 (stereo not given) | 25 mg/L (≈ 58.3 µM) | 25 mg/L (≈ 58.3 µM) | 25 mg/L (≈ 58.3 µM) | 12.5 mg/L (≈ 29.2 µM) | 6.25 mg/L (≈ 14.6 µM) | 50 mg/L (≈ 117 µM) | 25 mg/L (≈ 58.3 µM) | 50 mg/L (≈ 117 µM) | 25 mg/L (≈ 58.3 µM) | 50 mg/L (≈ 117 µM) | 17 mm | 17 mm | 17 mm | 17 mm | 17 mm | 17 mm | 12 mm | 17 mm | 22 mm | 17 mm
7 | CCC1/C(=N/O)CC(c2ccccc2)N(C)C1c1ccccc1 (stereo not given) | 200 mg/L (≈ 648 µM) | 100 mg/L (≈ 324 µM) | 50 mg/L (≈ 162 µM) | 200 mg/L (≈ 648 µM) | 200 mg/L (≈ 648 µM) | 200 mg/L (≈ 648 µM) | 50 mg/L (≈ 162 µM) | 200 mg/L (≈ 648 µM) | 200 mg/L (≈ 648 µM) | 200 mg/L (≈ 648 µM) | inactive | 12 mm | 12 mm | inactive | inactive | 12 mm | 12 mm | inactive | inactive | inactive
8 | CC(Cl)OC(=O)O/N=C1\CC(c2ccccc2)N(C)C(c2ccccc2)C1C (stereo not given) | 12.5 mg/L (≈ 31.2 µM) | 25 mg/L (≈ 62.4 µM) | 12.5 mg/L (≈ 31.2 µM) | 25 mg/L (≈ 62.4 µM) | 12.5 mg/L (≈ 31.2 µM) | 50 mg/L (≈ 125 µM) | 50 mg/L (≈ 125 µM) | 50 mg/L (≈ 125 µM) | 25 mg/L (≈ 62.4 µM) | 25 mg/L (≈ 62.4 µM) | 17 mm | 22 mm | 17 mm | 17 mm | 17 mm | 17 mm | 22 mm | 17 mm | 22 mm | 22 mm
9 | CCC1/C(=N/OC(=O)OC)CC(c2ccccc2)N(C)C1c1ccccc1 (stereo not given) | 100 mg/L (≈ 273 µM) | 100 mg/L (≈ 273 µM) | 25 mg/L (≈ 68.2 µM) | 200 mg/L (≈ 546 µM) | 200 mg/L (≈ 546 µM) | 200 mg/L (≈ 546 µM) | 25 mg/L (≈ 68.2 µM) | 200 mg/L (≈ 546 µM) | 200 mg/L (≈ 546 µM) | 200 mg/L (≈ 546 µM) | inactive | 12 mm | 12 mm | inactive | inactive | 12 mm | 12 mm | inactive | inactive | inactive
10 | CC(Cl)OC(=O)O/N=C1\CC(c2ccccc2)N(C)C(c2ccccc2)C1C(C)C (stereo not given) | 6.25 mg/L (≈ 14.6 µM) | 25 mg/L (≈ 58.3 µM) | 12.5 mg/L (≈ 29.1 µM) | 6.25 mg/L (≈ 14.6 µM) | 6.25 mg/L (≈ 14.6 µM) | 25 mg/L (≈ 58.3 µM) | 6.25 mg/L (≈ 14.6 µM) | 25 mg/L (≈ 58.3 µM) | 12.5 mg/L (≈ 29.1 µM) | 12.5 mg/L (≈ 29.1 µM) | 32 mm | 32 mm | 22 mm | 22 mm | 32 mm | 32 mm | 22 mm | 17 mm | 32 mm | 32 mm
11 | COC(=O)O/N=C1\CC(c2ccccc2)N(C)C(c2ccccc2)C1C(C)C (stereo not given) | 50 mg/L (≈ 131 µM) | 200 mg/L (≈ 526 µM) | 12.5 mg/L (≈ 32.9 µM) | 200 mg/L (≈ 526 µM) | 200 mg/L (≈ 526 µM) | 100 mg/L (≈ 263 µM) | 12.5 mg/L (≈ 32.9 µM) | 200 mg/L (≈ 526 µM) | 200 mg/L (≈ 526 µM) | 200 mg/L (≈ 526 µM) | inactive | 12 mm | inactive | 12 mm | inactive | 12 mm | 17 mm | inactive | inactive | inactive
